Assay results as given in PubChem BioAssay AID1919002 (Molecular Pharmacology Branch, DTP, NCI, 2023).
Values joined by “and” are separate entries in the source; they are usually repeats but may differ in a detail not shown here. Identical values can stand only once.

System: 743489-274-T-PDC complex spheroid growth
Assay: Anticancer human tumor 743489-274-T-PDC patient-derived renal cell carcinoma cell line growth inhibition [AhR]
Settings: for viability, T/C: stronger effect = lower value
How it was run: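 Agents were dosed in half-log steps down from roughly clinical Cmax, or from 10 microM where Cmax was unknown, alone and with AhR antagonists. Read-out: percent test/control growth of tumor spheroids containing HUVEC and MSC stromal cells.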

[1] = curve of first compound, second compound 0.1 µM
[2] = curve of first compound, second compound 0.316 µM
[3] = curve of first compound, second compound 1 µM
[4] = curve of first compound, second compound 3.16 µM
[5] = curve of first compound, second compound 10 µM
[6] = second compound 0.1 µM, first compound 0.000949 µM
[7] = second compound 0.1 µM, first compound 0.003 µM
[8] = second compound 0.1 µM, first compound 0.00949 µM
[9] = second compound 0.1 µM, first compound 0.03 µM
[10] = second compound 0.1 µM, first compound 0.0949 µM
[11] = second compound 0.1 µM, first compound 0.3 µM
[12] = second compound 0.316 µM, first compound 0.000949 µM
[13] = second compound 0.316 µM, first compound 0.003 µM
[14] = second compound 0.316 µM, first compound 0.00949 µM
[15] = second compound 0.316 µM, first compound 0.03 µM
[16] = second compound 0.316 µM, first compound 0.0949 µM
[17] = second compound 0.316 µM, first compound 0.3 µM
[18] = second compound 1 µM, first compound 0.000949 µM
[19] = second compound 1 µM, first compound 0.003 µM
[20] = second compound 1 µM, first compound 0.00949 µM
[21] = second compound 1 µM, first compound 0.03 µM
[22] = second compound 1 µM, first compound 0.0949 µM
[23] = second compound 1 µM, first compound 0.3 µM
[24] = second compound 3.16 µM, first compound 0.000949 µM
[25] = second compound 3.16 µM, first compound 0.003 µM
[26] = second compound 3.16 µM, first compound 0.00949 µM
[27] = second compound 3.16 µM, first compound 0.03 µM
[28] = second compound 3.16 µM, first compound 0.0949 µM
[29] = second compound 3.16 µM, first compound 0.3 µM
[30] = second compound 10 µM, first compound 0.000949 µM
[31] = second compound 10 µM, first compound 0.003 µM
[32] = second compound 10 µM, first compound 0.00949 µM
[33] = second compound 10 µM, first compound 0.03 µM
[34] = second compound 10 µM, first compound 0.0949 µM
[35] = second compound 10 µM, first compound 0.3 µM
[36] = second compound 0.1 µM, first compound 0.0316 µM
[37] = second compound 0.1 µM, first compound 0.1 µM
[38] = second compound 0.1 µM, first compound 0.316 µM
[39] = second compound 0.1 µM, first compound 1 µM
[40] = second compound 0.1 µM, first compound 3.16 µM
[41] = second compound 0.1 µM, first compound 10 µM
[42] = second compound 0.316 µM, first compound 0.0316 µM
[43] = second compound 0.316 µM, first compound 0.1 µM
[44] = second compound 0.316 µM, first compound 0.316 µM
[45] = second compound 0.316 µM, first compound 1 µM
[46] = second compound 0.316 µM, first compound 3.16 µM
[47] = second compound 0.316 µM, first compound 10 µM
[48] = second compound 1 µM, first compound 0.0316 µM
[49] = second compound 1 µM, first compound 0.1 µM
[50] = second compound 1 µM, first compound 0.316 µM
[51] = second compound 1 µM, first compound 1 µM
[52] = second compound 1 µM, first compound 3.16 µM
[53] = second compound 1 µM, first compound 10 µM
[54] = second compound 3.16 µM, first compound 0.0316 µM
[55] = second compound 3.16 µM, first compound 0.1 µM
[56] = second compound 3.16 µM, first compound 0.316 µM
[57] = second compound 3.16 µM, first compound 1 µM
[58] = second compound 3.16 µM, first compound 3.16 µM
[59] = second compound 3.16 µM, first compound 10 µM
[60] = second compound 10 µM, first compound 0.0316 µM
[61] = second compound 10 µM, first compound 0.1 µM
[62] = second compound 10 µM, first compound 0.316 µM
[63] = second compound 10 µM, first compound 1 µM
[64] = second compound 10 µM, first compound 3.16 µM
[65] = second compound 10 µM, first compound 10 µM
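Note: spheroids exposed to agents for 7 days before readout.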
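Throughout, for viability, T/C: 100% = DMSO vehicle control wells.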

## Nc1ncn(C2CC(O)C(CO)S2)c(=O)n1 (configuration not stated) + Cc1cncc(-c2nc(NCCc3c[nH]c4ccccc34)c3ncn(C(C)C)c3n2)c1
[1]
  IC50: > 0.3 µM
[2]
  IC50: > 0.3 µM
[3]
  IC50: > 0.3 µM
[4]
  IC50: > 0.3 µM
[5]
  IC50: > 0.3 µM
[6]
  viability, T/C: 107%
[7]
  viability, T/C: 105%
[8]
  viability, T/C: 104%
[9]
  viability, T/C: 95.8%
[10]
  viability, T/C: 96.5%
[11]
  viability, T/C: 93.1%
[12]
  viability, T/C: 96.6%
[13]
  viability, T/C: 99.8%
[14]
  viability, T/C: 104%
[15]
  viability, T/C: 98.3%
[16]
  viability, T/C: 84.7%
[17]
  viability, T/C: 101%
[18]
  viability, T/C: 108%
[19]
  viability, T/C: 100%
[20]
  viability, T/C: 106%
[21]
  viability, T/C: 106%
[22]
  viability, T/C: 98.8%
[23]
  viability, T/C: 103%
[24]
  viability, T/C: 114%
[25]
  viability, T/C: 106%
[26]
  viability, T/C: 119%
[27]
  viability, T/C: 118%
[28]
  viability, T/C: 109%
[29]
  viability, T/C: 96.2%
[30]
  viability, T/C: 138%
[31]
  viability, T/C: 115%
[32]
  viability, T/C: 117%
[33]
  viability, T/C: 124%
[34]
  viability, T/C: 112%
[35]
  viability, T/C: 125%

## COc1cc(Nc2ncc3c(n2)-c2ccc(Cl)cc2C(c2c(F)cccc2OC)=NC3)ccc1C(=O)O + Cc1cncc(-c2nc(NCCc3c[nH]c4ccccc34)c3ncn(C(C)C)c3n2)c1
[1]
  IC50: > 10 µM
[2]
  IC50: > 10 µM
[3]
  IC50: > 10 µM
[4]
  IC50: > 10 µM
[5]
  IC50: > 10 µM
[36]
  viability, T/C: 94.2%
[37]
  viability, T/C: 103%
[38]
  viability, T/C: 84.6%
[39]
  viability, T/C: 99.8%
[40]
  viability, T/C: 93.7%
[41]
  viability, T/C: 91.8%
[42]
  viability, T/C: 97.7%
[43]
  viability, T/C: 85%
[44]
  viability, T/C: 94%
[45]
  viability, T/C: 85.1%
[46]
  viability, T/C: 85%
[47]
  viability, T/C: 78.9%
[48]
  viability, T/C: 99%
[49]
  viability, T/C: 95.2%
[50]
  viability, T/C: 95.9%
[51]
  viability, T/C: 86%
[52]
  viability, T/C: 95.3%
[53]
  viability, T/C: 82.4%
[54]
  viability, T/C: 107%
[55]
  viability, T/C: 98%
[56]
  viability, T/C: 96.1%
[57]
  viability, T/C: 107%
[58]
  viability, T/C: 90.1%
[59]
  viability, T/C: 98.9%
[60]
  viability, T/C: 119%
[61]
  viability, T/C: 126%
[62]
  viability, T/C: 101%
[63]
  viability, T/C: 76.8%
[64]
  viability, T/C: 79.4%
[65]
  viability, T/C: 85.8%

## CCc1c2c(nc3ccc(O)cc13)-c1cc3c(c(=O)n1C2)COC(=O)[C@]3(O)CC + Cc1ccccc1N=Nc1ccc(NC(=O)c2ccnn2C)c(C)c1
[1]
  IC50: > 0.3 µM
[2]
  IC50: > 0.3 µM
[3]
  IC50: 0.238 µM
[4]
  IC50: > 0.3 µM
[5]
  IC50: 0.0862 µM
[6]
  viability, T/C: 79.7%
[7]
  viability, T/C: 94.1%
[8]
  viability, T/C: 89.5%
[9]
  viability, T/C: 76.1%
[10]
  viability, T/C: 59.2%
[11]
  viability, T/C: 55.1%
[12]
  viability, T/C: 83.4%
[13]
  viability, T/C: 89.2%
[14]
  viability, T/C: 94.8%
[15]
  viability, T/C: 71.2%
[16]
  viability, T/C: 54.9%
[17]
  viability, T/C: 50%
[18]
  viability, T/C: 90.2%
[19]
  viability, T/C: 93.2%
[20]
  viability, T/C: 79.6%
[21]
  viability, T/C: 72.1%
[22]
  viability, T/C: 60%
[23]
  viability, T/C: 47.3%
[24]
  viability, T/C: 85.1%
[25]
  viability, T/C: 88.9%
[26]
  viability, T/C: 80.7%
[27]
  viability, T/C: 62.8%
[28]
  viability, T/C: 57.8%
[29]
  viability, T/C: 50.2%
[30]
  viability, T/C: 85.4%
[31]
  viability, T/C: 84.7%
[32]
  viability, T/C: 76.8%
[33]
  viability, T/C: 60%
[34]
  viability, T/C: 50.2%
[35]
  viability, T/C: 44.7%

## COc1cc(C2c3cc4c(cc3C(OC3OC5COC(C)OC5C(O)C3O)C3COC(=O)C23)OCO4)cc(OC)c1O (configuration not stated) + Cc1ccccc1N=Nc1ccc(NC(=O)c2ccnn2C)c(C)c1
[1]
  IC50: > 10 µM
[2]
  IC50: > 10 µM
[3]
  IC50: > 10 µM
[4]
  IC50: > 10 µM
[5]
  IC50: > 10 µM
[36]
  viability, T/C: 98.7%
[37]
  viability, T/C: 87%
[38]
  viability, T/C: 97.2%
[39]
  viability, T/C: 94.4%
[40]
  viability, T/C: 98.3%
[41]
  viability, T/C: 79.9%
[42]
  viability, T/C: 91.2%
[43]
  viability, T/C: 93.6%
[44]
  viability, T/C: 91.2%
[45]
  viability, T/C: 88.9%
[46]
  viability, T/C: 77.9%
[47]
  viability, T/C: 80.7%
[48]
  viability, T/C: 86.7%
[49]
  viability, T/C: 93.7%
[50]
  viability, T/C: 90.7%
[51]
  viability, T/C: 88.9%
[52]
  viability, T/C: 90.4%
[53]
  viability, T/C: 74.8%
[54]
  viability, T/C: 83.3%
[55]
  viability, T/C: 90.2%
[56]
  viability, T/C: 86.9%
[57]
  viability, T/C: 78.8%
[58]
  viability, T/C: 78.6%
[59]
  viability, T/C: 75.8%
[60]
  viability, T/C: 78.4%
[61]
  viability, T/C: 81.8%
[62]
  viability, T/C: 95.1%
[63]
  viability, T/C: 72%
[64]
  viability, T/C: 69.4%
[65]
  viability, T/C: 70.7%

## Cn1ncnc1C1c2n[nH]c(=O)c3cc(F)cc(c23)NC1c1ccc(F)cc1 (configuration not stated)
Compound 0.000316 µM
  viability, T/C: 100% and 101% and 102%
Compound 0.001 µM
  viability, T/C: 105% and 111% and 108%
Compound 0.00316 µM
  viability, T/C: 95.8% and 107% and 98.2%
Compound 0.01 µM
  viability, T/C: 91.2% and 103% and 108%
Compound 0.0316 µM
  viability, T/C: 97.2% and 95.4% and 95.6%
Compound 0.1 µM
  viability, T/C: 103% and 94% and 99.3%
Curve of compound
  IC50: > 0.1 µM

## CC1(C)CCC(CN2CCN(c3ccc(C(=O)NS(=O)(=O)c4ccc(NCC5CCOCC5)c([N+](=O)[O-])c4)c(Oc4cnc5[nH]ccc5c4)c3)CC2)=C(c2ccc(Cl)cc2)C1 + Cc1ccccc1N=Nc1ccc(NC(=O)c2ccnn2C)c(C)c1
[1]
  IC50: > 10 µM
[2]
  IC50: > 10 µM
[3]
  IC50: > 10 µM
[4]
  IC50: > 10 µM
[5]
  IC50: > 10 µM
[36]
  viability, T/C: 91.9%
[37]
  viability, T/C: 92.9%
[38]
  viability, T/C: 93.9%
[39]
  viability, T/C: 94.7%
[40]
  viability, T/C: 96.1%
[41]
  viability, T/C: 94.3%
[42]
  viability, T/C: 95.7%
[43]
  viability, T/C: 94.9%
[44]
  viability, T/C: 97.5%
[45]
  viability, T/C: 81.8%
[46]
  viability, T/C: 87.5%
[47]
  viability, T/C: 81.6%
[48]
  viability, T/C: 89.8%
[49]
  viability, T/C: 88.4%
[50]
  viability, T/C: 99.6%
[51]
  viability, T/C: 99.2%
[52]
  viability, T/C: 89.1%
[53]
  viability, T/C: 78.3%
[54]
  viability, T/C: 90.1%
[55]
  viability, T/C: 91%
[56]
  viability, T/C: 93.8%
[57]
  viability, T/C: 85.6%
[58]
  viability, T/C: 75.5%
[59]
  viability, T/C: 81.8%
[60]
  viability, T/C: 84.8%
[61]
  viability, T/C: 85.2%
[62]
  viability, T/C: 90.1%
[63]
  viability, T/C: 80%
[64]
  viability, T/C: 104%
[65]
  viability, T/C: 82.1%
